For 14 molecules, IC50 results are on record in patent US7763657B2, “Compounds, isomer thereof, or pharmaceutically acceptable salts thereof as vanilloid receptor antagonist; and pharmaceutical compositions containing the same” (Amorepacific Corporation, priority 2005, dated 2010).

Structures are written as SMILES.

T1 sequence (O35433 whole entry): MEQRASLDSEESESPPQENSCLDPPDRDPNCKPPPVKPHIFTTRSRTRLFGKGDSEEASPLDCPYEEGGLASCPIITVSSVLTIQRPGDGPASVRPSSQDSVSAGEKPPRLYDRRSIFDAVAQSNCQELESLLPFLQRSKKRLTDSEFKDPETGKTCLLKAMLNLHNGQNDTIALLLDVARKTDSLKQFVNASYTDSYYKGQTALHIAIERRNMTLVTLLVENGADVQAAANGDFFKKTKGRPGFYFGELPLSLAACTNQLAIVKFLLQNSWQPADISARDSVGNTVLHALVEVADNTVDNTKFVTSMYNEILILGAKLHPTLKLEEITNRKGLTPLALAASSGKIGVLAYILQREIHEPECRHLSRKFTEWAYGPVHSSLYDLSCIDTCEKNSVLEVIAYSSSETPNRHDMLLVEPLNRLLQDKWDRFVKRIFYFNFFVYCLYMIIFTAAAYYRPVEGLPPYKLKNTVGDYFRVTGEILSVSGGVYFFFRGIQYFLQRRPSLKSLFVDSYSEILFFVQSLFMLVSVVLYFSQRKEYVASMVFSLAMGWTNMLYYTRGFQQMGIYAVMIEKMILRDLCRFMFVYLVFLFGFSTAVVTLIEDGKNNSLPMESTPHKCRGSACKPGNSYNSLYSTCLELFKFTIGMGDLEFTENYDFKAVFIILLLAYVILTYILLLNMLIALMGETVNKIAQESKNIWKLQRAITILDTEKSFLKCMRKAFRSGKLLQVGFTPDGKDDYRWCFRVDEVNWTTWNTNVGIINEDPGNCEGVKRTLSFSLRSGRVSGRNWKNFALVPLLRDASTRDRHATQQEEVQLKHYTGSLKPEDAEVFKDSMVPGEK

The test has as its target T1, vanilloid receptor (Rattus norvegicus, UniProt O35433).
T1 construct: DRG nerve cells from the primary culture of 2 days were equilibrated; endogenous in cells; host or cells: primary cultured dorsal root ganglion neurons of neonatal SD rats
Description: 45Ca influx test (calcium uptake) in primary cultured DRG neurons, antagonism of capsaicin. It counts as cell-based. Conditions: neonatal SD rat DRG nerve cells; capsaicin 0.5 μM; 45Ca 10 μCi/ml; 10 mins room temperature; read-out: Antagonist Calcium Uptake Test (IC50). On the procedure:
1) Separation of Spinal Dorsal Root Ganglia (DRG) in Newborn Rats and Primary Culture Thereof
Neonatal (2-3 day old or younger than 2-3 day old) SD rats were put in ice for 5 minutes to anesthetize and disinfected with 70% ethanol. […] The DRG were incubated sequentially at 37° C. for 30 min in 200 U/ml collagenase and 2.5 mg/ml trypsin, separately. The ganglia were washed twice with DME/F12 medium supplemented with 10% horse serum, triturated through a fire-polished Pasteur pipette, filtered through Nitex 80 membrane to obtain single cell suspension and the suspension was washed once more. This was subjected to centrifugation, then resuspended in cell culture medium at certain level of cell density. As the cell culture medium, DME/F12 medium supplemented with 10% horse serum was diluted with identical medium conditioned by C6 glioma cells 2 days on a confluent monolayer (1:1), and NGF (Nerve Growth Factor) was added to adjust 200 ng/ml as final concentration. After the cells were grown 2 days in medium where cytosine arabinoside (Ara-C, 100 μM) was added to kill dividing nonneuronal cells, medium was changed to one without Ara-C. The resuspended cells were plated at a density of 1500-2000 neurons/well onto Terasaki plates previously coated with 10 μg/ml poly-D-ornithine.
2) ^45Ca Influx Experiments
DRG nerve cells from the primary culture of 2 days were equilibrated by washing 4 times with HEPES (10 mM, pH 7.4)-buffered Ca^2+, Mg^2+-free HBSS (H—HBSS). The solution in each well was removed from the individual well. Medium containing the test compound plus capsaicin (final concentration 0.5 μM) and ^45Ca (final concentration 10 μCi/ml) in H—HBSS was added to each well and incubated at room temperature for 10 mins. Terasaki plates were washed five times with H—HBSS and dried at room temperature. To each well, 0.3% SDS (10 μl) was added to elute ^45Ca. After the addition of scintillation cocktail of into each well, the amount of ^45Ca influx into neuron was measured by counting radioactivity.
For the molecule `C=Cc1cc(CNC(=O)/C=C/c2ccc(C(C)(C)C)cc2NC(C)C)cc(F)c1NS(C)(=O)=O` [Example 34, 3-(4-tert-Butyl-2-isopropylaminophenyl)-N-(3-fluoro-4-methanesulfonylamino-5-vinylbenzyl)acrylamide], the IC50 – broadly, the concentration at which inhibition is half-maximal – was 0.17 µM.
The figure for `C=Cc1cc([C@@H](C)NC(=O)CCc2ccc(C(C)(C)C)cc2)cc(F)c1NS(C)(=O)=O` [Example 35, (R)-3-(4-tert-Butylphenyl)-N-[1-(3-fluoro-4-methanesulfonylamino-5-vinylphenyl)ethyl]propionamide] is 0.033 µM; for `C=Cc1cc([C@@H](C)NC(=O)/C(C)=C/c2ccc(C(C)(C)C)cc2)ccc1NS(C)(=O)=O` [Example 42, (R)-3-(4-tert-Butylphenyl)-N-[1-(4-methanesulfonylamino-3-vinylphenyl)ethyl]-2-methylacrylamide] it is 0.022 µM; for `C=Cc1cc(CNC(=O)/C=C/c2ccc(C(C)(C)C)cc2OC)cc(F)c1NS(C)(=O)=O` [Example 28, 3-(4-tert-Butyl-2-methoxyphenyl)-N-(3-fluoro-4-methanesulfonylamino-5-vinyl-benzyl)acrylamide] it is 0.073 µM.
Regarding `C=Cc1cc(CNC(=O)C#Cc2ccc(C(C)(C)C)cc2)cc(F)c1NS(C)(=O)=O` [Example 12, 3-(4-tert-Butylphenyl)propynoic acid 3-fluoro-4-methanesulfonylamino-5-vinylbenzylamide], the IC50 was 0.087 µM.
Under `C=Cc1cc(CNC(=O)NCc2ccc(C(C)(C)C)cc2)ccc1NS(C)(=O)=O` [Example 1, N-{4-[3-(4-t-butylbenzyl)ureidomethyl]-2-vinylphenyl}methanesulfonamide] stands 0.16 µM; under `C=Cc1cc([C@@H](C)NC(=O)NCc2ccc(C(C)(C)C)cc2)cc(F)c1NS(C)(=O)=O` [Example 7, (R)—N-(4-{1-[3-(4-tert-Butyl-benzyl)-ureido]-ethyl}-2-fluoro-6-vinyl-phenyl)-methanesulfonamide], 0.039 µM; under `C=Cc1cc(CNC(=O)/C=C/c2ccc(C(C)(C)C)cc2N2CCOCC2)cc(F)c1NS(C)(=O)=O` [Example 22, 3-(4-tert-Butyl-2-morpholin-4-yl-phenyl)-N-(3-fluoro-4-methanesulfonylamino-5-vinylbenzyl)acrylamide], 0.25 µM.
The figure for `C#Cc1cc(CNC(=O)CCc2ccc(C(C)(C)C)cc2)cc(F)c1NS(C)(=O)=O` [Example 47, 3-(4-tert-butyl-phenyl)-N-(3-ethynyl-5-fluoro-4-methanesulfonylamino-benzyl)-propionamide] is 0.17 µM; for `C=Cc1cc(CNC(=O)/C=C/c2ccc(C(C)(C)C)cc2OCCOC)cc(F)c1NS(C)(=O)=O` [Example 23, 3-[4-tert-Butyl-2-(2-methoxy-ethoxy)-phenyl]-N-(3-fluoro-4-methanesulfonylamino-5-vinyl-benzyl)-acrylamide] it is 0.067 µM; for `C=Cc1cc([C@@H](C)NC(=O)Nc2ccc(C(C)(C)C)cc2)ccc1NS(C)(=O)=O` [Example 53, (R)—N-(4-{1-[3-(4-tert-Butylphenyl)ureido]ethyl}-2-vinylphenyl)methanesulfonamide] it is 0.099 µM.
The figure for `C=Cc1cc(CNC(=O)/C(C)=C/c2ccc(C(C)(C)C)cc2)cc(F)c1NS(C)(=O)=O` [Example 37, 3-(4-tert-Butylphenyl)-N-(3-fluoro-4-methanesulfonylamino-5-vinylbenzyl)-2-methylacrylamide] is 0.049 µM; for `C=Cc1cc([C@@H](C)NC(=O)C#Cc2ccc(C(C)(C)C)cc2)ccc1NS(C)(=O)=O` [Example 11, 3-(4-t-butylphenyl)-N-[1-(R)-(4-methanesulfonylamino-3-vinylphenyl)ethyl]propiolicamide] it is 0.079 µM.
On to `C=Cc1cc(CNC(=O)Nc2ccc(C(C)(C)C)cc2)cc(F)c1NS(C)(=O)=O` [Example 57, N-{4-[3-(4-tert-Butylphenyl)ureidomethyl]-2-fluoro-6-vinylphenyl}methanesulfonamide], for which the IC50 came to 0.5 µM.
